Measured values from patent US20170129903A1, “COMPOUNDS COMPRISING 1,1a,2,5a-TETRAHYDROSPIRO[INDOLE-3,2a-PYRROLE]-2,5a-DIONE SYSTEM AS INHIBITORS P53-MDM2 PROTEIN-PROTEIN INTERACTION” (ADAMED SP. Z O.O., priority 2014, published 2017).

Experiments:
[1] = molecular target: T1, p53-Mdm2 interaction (N-terminal domain of Mdm2 protein, amino acids 1-111) (Homo sapiens, UniProt Q00987); experiment: Fluorescence polarization (FP) binding assay of p53-Mdm2 interaction; settings: for Ki: FP assay, 130 nM Mdm2, FAM-labelled p53 peptide, Ki transformed from IC50 using Kenakin equation
T1 construct: N-terminal domain of Mdm2 protein (amino acids 1-111)
Method in brief: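 N-terminal Mdm2 (aa 1-111) at 130 nM preincubated 15 min with compound (5% DMSO) in PBS, 0.1% CHAPS, 5 mM DTT, then […] FAM-labelled p53 peptide added. Polarization read after 90 min at room temperature (ex 470/em 520 nm). IC50 converted to Ki by Kenakin equation.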

[2] = test system: SJSA-1 osteosarcoma cell line; experiment: MTT cell viability assay; assay type: cell-based; settings: Homo sapiens, SJSA-1, 72 h, 72 h incubation, average of 2-5 experiments
Experimental: The effect of the invented p53-Mdm2 inhibitors on cell viability has been assessed using MTT assay. It is a colorimetric assay that measures conversion of tetrazolium ring of the soluble yellow dye (MTT) into insoluble purple formazan. This process is catalysed solely in mitochondrial dehydrogenases of living cells.
Cells were seeded on 96-well plates and then treated with successive dilutions of tested compounds. After 72 h incubation, MTT was added to the final concentration 0.5 mg/ml. The cells were further incubated for the next 4 h. Then the solution was drained and the remaining formazan crystals were dissolved in 100 μl DMSO. […] All the MTT experiments were independently repeated 2-5 times. Dose-dependent binding curves and IC50 values were calculated using GraphPad Prism 5.

T1 sequence (Q00987 1-111): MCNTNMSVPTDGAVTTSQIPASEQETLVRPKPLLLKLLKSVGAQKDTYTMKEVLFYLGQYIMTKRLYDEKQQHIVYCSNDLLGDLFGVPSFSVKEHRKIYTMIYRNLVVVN

Structure (SMILES) | Ki [1] [nM] | IC50 [2] [µM] | times more potent than the corresponding S/R (racemic) mixture ([1]; enantiopure S isomers vs racemic Compounds 71, 93 and 72, respectively)
COc1ccccc1-n1nc2c(c1C1(C)CC1)C1(C(=O)Nc3cc(Cl)ccc31)N(c1cccc(Cl)c1)C2=O (stereo not drawn) [Compound 26, 6-chloro-5′-(3-chlorophenyl)-2′-(2-methoxyphenyl)-3′-(1-methylcyclopropyl)-1,2,5′,6′-tetrahydro-2′H-spiro[indole-3,4′-pyrrolo[3,4-c]pyrazole]-2,6′-dione] | 23 | 4.91 | 
COC(=O)/C=C/COc1ccc(Cl)cc1N1C(=O)c2nn(-c3ccccc3OC)c(C(C)C)c2C12C(=O)Nc1cc(Cl)ccc12 (stereo not drawn) [Compound 62, methyl (2E)-4-{4-chloro-2-[6-chloro-2′-(2-methoxyphenyl)-2,6′-dioxo-3′-(propan-2-yl)-1,2,5′,6′-tetrahydro-2′H-spiro[indole-3,4′-pyrrolo[3,4-c]pyrazole]-5′-yl]phenoxy}but-2-enoate] | 11 | 2.23 | 
CCOC(=O)CNC1=C(c2ccccc2)C2(C(=O)Nc3cc(Cl)ccc32)N(c2cccc(Cl)c2)C1=O (stereo not drawn) [Compound 48, ethyl 2-{[6-chloro-1′-(3-chlorophenyl)-2,5′-dioxo-3′-phenyl-1,1′,2,5′-tetrahydrospiro[indole-3,2′-pyrrole]-4′-yl]amino}acetate] | 205 | 28 | 
CO[C@H]1CNCC[C@H]1n1cc2c(c1C(C)C)[C@@]1(C(=O)Nc3cc(Cl)ccc31)N(c1cc(Cl)ccc1C)C2=O [Compound 103, (3S)-6-chloro-2′-(5-chloro-2-methyl-phenyl)-5′-[(3S,4R)-3-methoxy-piperidin-4-yl]-6′-(propan-2-yl)-1,2,3′,5′-tetrahydro-2′H-spiro[indole-3,1′-pyrrolo [3,4-c]pyrrole]-2,3′-dione] | 4.5 | 2.2 | 
Cc1ccc(Cl)cc1N1C(=O)c2n[nH]c(C(C)C)c2C12C(=O)Nc1cc(Cl)ccc12 (stereo not drawn) [Compound 23, 6-chloro-5′-(5-chloro-2-methylphenyl)-3′-(propan-2-yl)-1,2,5′,6′-tetrahydro-2′H-spiro[indole-3,4′-pyrrolo[3,4-c]pyrazole]-2,6′-dione] | 20 | 10.2 | 
CCc1ccccc1-n1nc2c(c1C(C)C)C1(C(=O)Nc3cc(Cl)ccc31)N(c1cc(Cl)ccc1C)C2=O (stereo not drawn) [Compound 67, 6-chloro-5′-(5-chloro-2-methylphenyl)-2′-(2-ethylphenyl)-3′-(propan-2-yl)-1,2,5′,6′-tetrahydro-2′H-spiro[indole-3,4′-pyrrolo [3,4-c]pyrazole]-2,6′-dione] | 86 | 12.4 | 
COc1sccc1-n1cc2c(c1C(C)C)C1(C(=O)Nc3cc(Cl)ccc31)N(c1cc(Cl)ccc1C)C2=O (stereo not drawn) [Compound 113, 6-chloro-2′-(5-chloro-2-methylphenyl)-5′-(2-methoxythiophen-3-yl)-6′-(propan-2-yl)-1,2,3′,5′-tetrahydro-2′H-spiro[indole-3,1′-pyrrolo[3,4-c]pyrrole]-2,3′-dione] | 3.4 | 0.69 | 
COc1ccc(-n2nc3c(c2C(C)C)C2(C(=O)Nc4cc(Cl)ccc42)N(c2cc(Cl)ccc2C)C3=O)c(OC)n1 (stereo not drawn) [Compound 114, 6-chloro-5′-(5-chloro-2-methylphenyl)-2′-(2,6-dimethoxypyridin-3-yl)-3′-(propan-2-yl)-1,2,5′,6′-tetrahydro-2′H-spiro[indole-3,4′-pyrrolo[3,4-c]pyrazole]-2,6′-dione] | 3.3 | 0.29 | 
CC(C)c1[nH]nc2c1C1(C(=O)Nc3cc(Cl)ccc31)N(c1cc(Cl)ccc1O)C2=O (stereo not drawn) [Compound 24, 6-chloro-5′-(5-chloro-2-hydroxyphenyl)-3′-(propan-2-yl)-1,2,5′,6′-tetrahydro-2′H-spiro[indole-3,4′-pyrrolo[3,4-c]pyrazole]-2,6′-dione] | 54 | 33.5 | 
CSc1ccccc1-n1nc2c(c1C(C)C)C1(C(=O)Nc3cc(Cl)ccc31)N(c1cc(Cl)ccc1C)C2=O (stereo not drawn) [Compound 77, 6-chloro-5′-(5-chloro-2-methylphenyl)-2′-[2-(methylsulfanyl)phenyl]-3′-(propan-2-yl)-1,2,5′,6′-tetrahydro-2′H-spiro[indole-3,4′-pyrrolo[3,4-c]pyrazole]-2,6′-dione] | 30 | 8.57 | 
COc1ccc(NC(C)=O)cc1-n1cc2c(c1C(C)C)C1(C(=O)Nc3cc(Cl)ccc31)N(c1cc(Cl)ccc1C)C2=O (stereo not drawn) [Compound 97, N-{3-[6-chloro-2′-(5-chloro-2-methylphenyl)-2,3′-dioxo-6′-(propan-2-yl)-1,2,3′,5′-tetrahydro-2′H-spiro[indole-3,1′-pyrrolo[3,4-c]pyrrole]-5′-yl]-4-methoxyphenyl}acetamide] | 3.4 | 0.3 | 
Cc1ccc(Cl)cc1N1C(=O)c2n[nH]c(C3(C)CC3)c2C12C(=O)Nc1cc(Cl)ccc12 (stereo not drawn) [Compound 18, 6-chloro-5′-(5-chloro-2-methylphenyl)-3′-(1-methylcyclopropyl)-1,2,5′,6′-tetrahydro-2′H-spiro[indole-3,4′-pyrrolo [3,4-c]pyrazole]-2,6′-dione] | 45 | 10.8 | 
COc1ccc(C(N)=O)cc1-n1cc2c(c1C(C)C)C1(C(=O)Nc3cc(Cl)ccc31)N(c1cc(Cl)ccc1C)C2=O (stereo not drawn) [Compound 95, 3-[6-chloro-2′-(5-chloro-2-methylphenyl)-2,3′-dioxo-6′-(propan-2-yl)-1,2,3′,5′-tetrahydro-2′H-spiro[indole-3,1′-pyrrolo [3,4-c]pyrrole]-5′-yl]-4-methoxybenzamide] | 1.8 | 0.3 | 
Cc1cccc(-n2nc3c(c2C(C)C)C2(C(=O)Nc4cc(Cl)ccc42)N(c2cc(Cl)ccc2C)C3=O)c1 (stereo not drawn) [Compound 69, 6-chloro-5′-(5-chloro-2-methylphenyl)-2′-(3-methylphenyl)-3′-(propan-2-yl)-1,2,5′,6′-tetrahydro-2′H-spiro[indole-3,4′-pyrrolo[3,4-c]pyrazole]-2,6′-dione] | 67 | 4.04 | 
CS(=O)(=O)OC1=C(c2ccccc2)C2(C(=O)Nc3cc(Cl)ccc32)N(c2cccc(Cl)c2)C1=O (stereo not drawn) [Compound 52, 6-chloro-1′-(3-chlorophenyl)-2,5′-dioxo-3′-phenyl-1,1′,2,5′-tetrahydrospiro[indole-3,2′-pyrrole]-4′-yl methanesulfonate] | 800 | 39.6 | 
Cc1ccc(Cl)cc1N1C(=O)C(O)=C(c2ccccc2)C12C(=O)Nc1cc(Cl)ccc12 (stereo not drawn) [Compound 47, 6-chloro-1′-(5-chloro-2-methylphenyl)-4′-hydroxy-3′-phenyl-1,1′,2,5′-tetrahydrospiro[indole-3,2′-pyrrole]-2,5′-dione] | 29 | 44.5 | 
COc1ccc(-n2cc3c(c2C(C)C)[C@@]2(C(=O)Nc4cc(Cl)ccc42)N(c2cc(Cl)ccc2C)C3=O)c(OC)c1 [Compound 107, (3S)-6-chloro-2′-(5-chloro-2-methylphenyl)-5′-(2,4-dimethoxyphenyl)-6′-(propan-2-yl)-1,2,3′,5′-tetrahydro-2′H-spiro[indole-3,1′-pyrrolo[3,4-c]pyrrole]-2,3′-dione] | 1.9 | 0.06 | about 2 times
Cc1ccc(Cl)cc1N1C(=O)c2nn(-c3ccccc3C)c(C(C)C)c2C12C(=O)Nc1cc(Cl)ccc12 (stereo not drawn) [Compound 68, 6-chloro-5′-(5-chloro-2-methylphenyl)-2′-(2-methylphenyl)-3′-(propan-2-yl)-1,2,5′,6′-tetrahydro-2′H-spiro[indole-3,4′-pyrrolo[3,4-c]pyrazole]-2,6′-dione] | 46 | 6.35 | 
COc1ccccc1-n1cc2c(c1C(C)C)C1(C(=O)Nc3cc(Cl)ccc31)N(c1cc(Cl)ccc1C(=O)O)C2=O (stereo not drawn) [Compound 105, 4-chloro-2-[6-chloro-5′-(2-methoxyphenyl)-2,3′-dioxo-6′-(propan-2-yl)-1,2,3′,5′-tetrahydro-2′H-spiro[indole-3,1′-pyrrolo[3,4-c]pyrrole]-2′-yl]benzoic acid] | 4.3 | 9.98 | 
COc1ccccc1-n1nc2c(c1C(C)C)C1(C(=O)Nc3cc(Cl)ccc31)N(c1cc(Cl)ccc1C)C2=O (stereo not drawn) [Compound 31, 6-chloro-5′-(5-chloro-2-methylphenyl)-2′-(2-methoxyphenyl)-3′-(propan-2-yl)-1,2,5′,6′-tetrahydro-2′H-spiro[indole-3,4′-pyrrolo[3,4-c]pyrazole]-2,6′-dione] | 4.7 | 0.53 | 
COc1ccc(S(=O)(=O)N2CCOCC2)cc1-n1cc2c(c1C(C)C)C1(C(=O)Nc3cc(Cl)ccc31)N(c1cc(Cl)ccc1C)C2=O (stereo not drawn) [Compound 112, 6-chloro-2′-(5-chloro-2-methylphenyl)-5′-[2-methoxy-5-(morpholine-4-sulfonyl)phenyl]-6′-(propan-2-yl)-1,2,3′,5′-tetrahydro-2′H-spiro[indole-3,1′-pyrrolo [3,4-c]pyrrole]-2,3′-dione] | 3.5 | 0.15 | 
CCOC(=O)c1ccc(Cl)cc1N1C(=O)c2cn(-c3ccccc3OC)c(C(C)C)c2C12C(=O)Nc1cc(Cl)ccc12 (stereo not drawn) [Compound 106, ethyl 4-chloro-2-[6-chloro-5′-(2-methoxyphenyl)-2,3′-dioxo-6′-(propan-2-yl)-1,2,3′,5′-tetrahydro-2′H-spiro[indole-3,1′-pyrrolo[3,4-c]pyrrole]-2′-yl]benzoate] | 4.2 | 0.78 | 
